This note sets out measurements from patent US8216783B2, “Over-expression and mutation of a tyrosine kinase receptor FGFR4 in tumors” (The United States of America, as represented by the …, priority 2008, dated 2012).

One test concerns RH30 TRB H11.5 cells. The test can be described thus: In vitro growth of RH30 TRB H11.5 cells with or without dox. As to conditions: RH30 TRB H11.5, 25 nM dox, 13 days, P=0.0021. The class given is cell-based, human. Here is the method: FIG. 13B is a plot of RH30 TRB H11.5 cell growth with or without 25 nM dox for 120 hours.
FIG. 13C is a plot of RH30TRB H11.5 cell number 13 days after treatment with or without 25 nM dox.
Human rhabdomyosarcoma cell line RH30 was retrovirally transduced with vectors containing tetracycline repressor protein and ecotropic receptor. A tetracycline inducible shRNA construct targeting FGFR4 ([…], SEQ ID NO: 44) was used to transduce these RH30 cells as described previously (Ngo et al. Nature 441:106-110, 2006). Transduced RH30 cells were then subcloned. The subclone with the highest FGFR4 knockdown in the presence of doxycycline (dox) was used for in vitro and in vivo studies. The subclone chosen was designated as RH30 TRB H11.5 and was further transduced with a retroviral vector encoding luciferase. RH30 TRB H11.5 cells treated with or without 25 ng/ml doxycycline for 48 hours were harvested for Western blot for FGFR4 expression.

The test system of test [1] is RMS772 cells expressing FGFR4 N535K (K535). The test can be described thus: Percent cell survival of transduced RMS772 cell lines with PD173074. The class given is cell-based. To be noted: Mus musculus; RMS772 K535, 48 hours of treatment.
The test system of test [2] is RMS772 cells expressing FGFR4 V550E (E550). Described as above. To be noted: Mus musculus; RMS772 E550, 48 hours of treatment. It counts as cell-based.
The next test relates to RH41. The test can be described thus: IC50 of PD173074 for killing human RMS cell lines (RT-CES cell growth monitoring). As to conditions: RH41 cell line. It counts as cell-based. Here is the method:
(§1) Briefly human RMS cell lines were seeded in the 96 well plate device at 5000-20,000 cells per well. […] Cell growth was monitored and IC50 values were calculated by Cell Office® (ACEA Biosciences, San Diego, Calif.).
(§2) Expression level of FGFR4 mRNA for each cell line was determined by real-time PCR (FIG. 10).

The test system of a further test is RD. Described as above. It counts as cell-based. To be noted: RD cell line. Here is the method: as §1, §2
The next test has as its system RH30. Described as above. It counts as cell-based. To be noted: RH30 cell line. Here is the method:
as §1, §2

The next test deals with RH36. Described as above. The class given is cell-based. As to conditions: RH36 cell line. Here is the method: as §1, §2
For a further test, the system named is RH28. The description is as above. It counts as cell-based. As to conditions: RH28 cell line. Here is the method: as §1, §2
For test [3], the system named is RMS772 cells expressing wild type FGFR4. The test can be described thus: Percent cell survival of transduced RMS772 cell lines with PD173074. The class given is cell-based. To be noted: Mus musculus; RMS772 wild type FGFR4, 48 hours of treatment.
Test [4] has as its system RMS772 cells expressing vector only. The description is as above. The class given is cell-based. As to conditions: Mus musculus; RMS772 vector control, 48 hours of treatment.
The test system of test [5] is RMS772 cells expressing FGFR4 N535K (K535) or V550E (E550). The test can be described thus: Activated caspase 3 positive cells in RMS772 transductants. It counts as cell-based, mouse. As to conditions: both mutant RMS772 cell lines, 20 μM, 24 hour treatment.
Test [6] has as its system RMS772 cells expressing FGFR4 TK domain mutations N535K or V550E. The test can be described thus: Cell cycle assay (BrdU/7-AAD flow cytometry), apoptosis as subG1 fraction. The class given is cell-based, mouse. To be noted: 5 uM for 24 hours. Here is the method: (§3) The effect of […] in RMS119 and RMS772 transfectants was determined using cell cycle assays. […] Cells were then pulsed with BrdU for 40 minutes, and then fixed, permeabilized, and treated with DNase, and followed by staining with mAb (BD Biosciences, Franklin Lakes, N.J.) against BrdU and with 7-AAD (BD Biosciences, Franklin Lakes, N.J.) respectively. Flow cytometry was used to analyze the cell cycle parameters.
(§4) Apoptosis was assessed by determining the fraction of cells in the subG1 stage of the cell cycle. There were no differences in cell cycle parameters of RMS772 cells expressing TK domain mutants cultured in medium containing 10% FBS compared to vector or wild type FGFR4 (FIG. 9A).
On the technique in general: A flow cytometer gives signals particle by particle.

In test [7] the test system is RMS119 cells expressing FGFR4 N535K or V550E. The test is described as above. It counts as cell-based, mouse. To be noted: 5 uM for 24 hours. Here is the method: as §3, §4
The test system of test [8] is RMS772 cells expressing FGFR4 N535K or V550E. The test can be described thus: Relative cell number of RMS772 transductants treated with imatinib. It counts as cell-based, mouse. To be noted: 10 μM, 24 hours. The procedure:
To determine the sensitivity of FGFR4 mutants (N535K and V550E) to imatinib, RMS772 transductants were treated with imatinib (ranging from 0 μM to 40 μM). After 24 hours, relative cell number (normalized with control) was plotted against imatinib dose.

Setting [9] is: 24 hours, read-out: IC50 for killing, 24 hours.
[10] abbreviates: 48 hours, read-out: IC50 for killing, 48 hours.
The mark [11] stands for this setting: 72 hours, read-out: IC50 for killing, 72 hours.

Entries after “also recorded” stand apart in the source; their conditions may differ. Read-outs that look alike come from different tables or passages of the source.

With `C[C@H]1c2cccc(O)c2C(=O)C2=C(O)[C@]3(O)C(=O)C(C(N)=O)=C(O)[C@@H](N(C)C)[C@@H]3[C@@H](O)[C@@H]21` [dox, doxycycline], in the test with RH30 TRB H11.5 cells, the “reduction in growth after prolonged culture” value came out at 41%.
Turning to `CCN(CC)CCCCNc1ncc2cc(-c3cc(OC)cc(OC)c3)c(NC(=O)NC(C)(C)C)nc2n1` [PD173074], the IC50 is 8.2 µM in test [1]; 5.9 µM in test [2]; 2.55 µM with RH41 (setting [9]); 0.96 µM in the test with RH41 (setting [10]); 0.76 µM with RH41 (setting [11]); 57.1 µM in the test with RD (setting [9]). Moreover, the IC50 in the test on RD (setting [10]) turned out to be 29.7 µM; in the test with RD (setting [11]) it was 20.2 µM; with RH30 (setting [9]), 10 µM; in the test with RH30 (setting [10]) it was 8.32 µM; with RH30 (setting [11]), 8.11 µM; in the test with RH36 (setting [9]), 25.9 µM. In addition, the IC50 in the test on RH36 (setting [10]) was 17.6 µM; in the test with RH36 (setting [11]), 20.2 µM; in the test on RH28 (setting [9]), 2.22 µM; with RH28 (setting [10]) it was 0.66 µM; with RH28 (setting [11]), 0.5 µM; in [3], 11.8 µM. Further, in [4], the midpoint of inhibition, the IC50, lay at 12.7 µM. Besides, the “activated caspase 3 (cells positive, normalized to vector only)” value in [5] is listed as “increased activated caspase 3”. For the same compound, the “apoptosis (SubG1 fraction) compared with cells transfected with vector or wild type FGFR4” value in test [6] was “increase in apoptosis; also recorded: increased SubG1 fraction”. For the same compound, the “apoptosis / cell cycle effect of treatment” value in test [7] is “not affected”.
Take `Cc1ccc(NC(=O)c2ccc(CN3CCN(C)CC3)cc2)cc1Nc1nccc(-c2cccnc2)n1` [imatinib, 4-[(4-methylpiperazin-1-yl)methyl]-N-[4-methyl-3-[(4-pyridin-3-ylpyrimidin-2-yl)amino]-phenyl]-benzamide]: in test [8], the “sensitivity (relative cell number) of FGFR4 mutants versus wild type FGFR4 or control cells” value is “more sensitive”.

What is called IC50 is the concentration at which inhibition is half-maximal.
